ChEMBL document CHEMBL2029324, “A small molecule regulates hairpin structures in d(CGG) trinucleotide repeats” (Bioorg Med Chem Lett, 2012)
Active and inactive are the calls of the source. The rule behind the calls is not given here.

What was measured:
Type in all cases: nucleic-acid assay
Nucleic Acid [1] = assay: Binding affinity to d(CCG)10 DNA assessed as inhibition of Taq polymerase-mediated DNA replication at 20 uM
Nucleic Acid [2] = assay: Binding affinity to d(CGG)10 DNA assessed as increase in strong positive peak by CD-UV analysis
Nucleic Acid [3] = assay: Binding affinity to d(CGG)10 DNA assessed as inhibition of Taq polymerase at first (CGG)10 repeat region from 3'-end of the template at increasing concentration
Nucleic Acid [4] = assay: Binding affinity to d(CCG)10 DNA assessed as increase in melting temperature at 5 to 20 uM
Nucleic Acid [5] = assay: Binding affinity to d(CGG)10 DNA assessed as thermal denaturation at 100 degC and 20 uM
Nucleic Acid [6] = assay: Binding affinity to d(CGG)10 DNA assessed as inhibition of Taq polymerase at first and fifth part of the (CGG)10 repeat region from 3'-end of the template at 5 uM
Nucleic Acid [7] = assay: Binding affinity to d(CGG)10 DNA assessed as hairpin loop formation at 1 to 30 uM by PAGE analysis
Nucleic Acid [8] = assay: Binding affinity to d(CGG)10 DNA assessed as decrease in signal intensity by CD-UV analysis
Nucleic Acid [9] = assay: Binding affinity to d(CGG)10 DNA assessed as increase in positive induced CD at 5 to 20 uM by CD-UV analysis
Nucleic Acid [10] = assay: Binding affinity to d(CCG)10 DNA assessed as hairpin loop formation at 30 uM by PAGE analysis
Nucleic Acid [11] = assay: Binding affinity to d(CGG)10 DNA assessed as formation of compound-DNA hairpin loop of the template at low compound concentration
Nucleic Acid [12] = assay: Binding affinity to d(CGG)10 DNA assessed as formation of stable compound-DNA hairpin loop of the template at increasing compound concentration
Nucleic Acid [13] = assay: Binding affinity to d(CGG)10 DNA assessed as inhibition of Taq polymerase-mediated DNA replication

Activity (Nucleic Acid [1]): inactive
Activity (Nucleic Acid [2]): Dose-dependent effect
Activity (Nucleic Acid [3]): Active
Activity (Nucleic Acid [4]): inactive
Activity (Nucleic Acid [5]): inactive
Activity (Nucleic Acid [6]): Active
Activity (Nucleic Acid [7]): Active
Activity (Nucleic Acid [8]): Dose-dependent effect
Activity (Nucleic Acid [9]): Active
Activity (Nucleic Acid [10]): inactive
Activity (Nucleic Acid [11]): Active
Activity (Nucleic Acid [12]): Active
Activity (Nucleic Acid [13]): Dose-dependent effect
SMILES: Cc1ccc2ccc(NC(=O)OCCCNCCCOC(=O)Nc3ccc4ccc(C)nc4n3)nc2n1
